# Measured values as given in patent US10995129B2 (Case Western Reserve University, priority 2011, dated 2021).
# How the values were obtained:
# [1] = target: A isoform of the insulin receptor (IR-A) (Homo sapiens, UniProt P06213); experiment: Affinity of the GluA8, TrpA13, ChaB24 analogue for receptor isoform A; format: binding
# [2] = system: Normal male Sprague-Dawley rats; experiment: Hyperinsulinemic-euglycemic clamp; format: in vivo, rat
# Procedure: A primed infusion of glucose was administered followed by a continuous dosage. […] Glucose appearance and disposal was determined by calculating the difference between glucose infused and glucose present in the plasma as determined by glucometer. Plasma levels of plasma nonesterified fatty acids (NEFA) are determined using a colorimeteric assay such as the assay kit available from Fujifilm Wako Diagnostics (Mountain View, Calif.). Phosphorylation relative to basal level was measured using Western blot analysis of samples harvested from liver, gastrocnemius and epididymal white adipose tissue (eWAT), and immunoblotted using anti-phosphotyrosine antibody (Cell Signaling Technologies, Inc., Danvers, Mass., Phospho-IGF-I Receptor β ([MUT]) Rabbit monoclonal antibody #3918). Similarly Akt phosphorylation was similarly tested using Cell Signaling Technology, Inc. (Danvers, Mass.) antibody No. 9271 as primary antibody and horse radish peroxidase (HRP)-linked Anti-rabbit IgG antibody No. 7074 (Cell Signaling Technology, Inc., Danvers, Mass.).
# [3] = target: B isoform of the insulin receptor (IR-B) (Homo sapiens, UniProt P06213); experiment: Affinity of the GluA8, TrpA13, ChaB24 analogue for receptor isoform B; format: binding
substance,measurement,setting,value
"CHA: insulin analogue with Glu A8, Trp A13 and cyclohexanylalanine B24; SEQ ID NOS: 50 and 51",lower affinity for the A isoform of the insulin receptor,[1],five
same,increase of insulin stimulated whole body glucose disposal (Rd),[2]; FIG. 16B,to a similar degree
same,insulin stimulated whole body glucose disposal (Rd),[2]; FIG. 16B legend,21.1 ± 1.4 mg/kg/min
same,"insulin receptor tyrosine phosphorylation (IRKpY) in liver, vs KP","[2]; Western blot, FIG. 16D",decrease
same,"IRKpY activation in gastrocnemius muscle, vs KP","[2]; Western blot, FIG. 16E",to a similar degree
same,"IRKpY activation in epididymal white adipose tissue (eWAT), vs KP","[2]; Western blot, FIG. 16F",to a similar degree
same,GINF (glucose infusion),[2]; during clamp,21.1 ± 1.4 mg/kg/min
same,clamped plasma glucose concentration,"[2]; during clamp, KP 24, CHA 40 pmol/kg-min",111.1 ± 5.1 mg/dL
same,suppression of endogenous glucose production (EGP),"[2]; hyperinsulinemic conditions, p=0.001",28.2±16.7%
same,2-deoxyglucose uptake in eWAT,"[2]; rat, in vivo",0.72±0.1 mg glucose·kg tissue^−1·min^−1
same,2-deoxyglucose uptake in gastrocnemius,"[2]; rat, in vivo",18.6±2.5 mg glucose·kg tissue^−1·min^−1
same,lower affinity for the B isoform of the insulin receptor,[3],13 fold
